For data set [1], the system named is MCF7. The data set can be described thus: Antiproliferative activity against human MCF7 cells assessed as growth inhibition at 10 uM incubated for 24 hrs by MTT assay (reference value: 0%). Format: functional. The note with it: MCF7, 24 h, read-out: GI. On the technique in general: Tetrazolium dyes change colour on reduction, which living cells bring about.
In data set [2] the test system is MCF7. The data set can be described thus: Antiproliferative activity against human MCF7 cells assessed as growth inhibition at 1 uM incubated for 24 hrs by MTT assay (reference value: 0%). Format: functional. To be noted: MCF7, 24 h, read-out: GI.
In data set [3] the test system is MCF7. The data set is described as follows: Antiproliferative activity against human MCF7 cells assessed as growth inhibition at 0.1 uM incubated for 24 hrs by MTT assay (reference value: 0%). Format: functional. To be noted: MCF7, 24 h, read-out: GI.
The test system of data set [4] is A549. The data set can be described thus: Antiproliferative activity against human A549 cells assessed as growth inhibition at 10 uM incubated for 24 hrs by MTT assay (reference value: 0%). To be noted: A549, 24 h, read-out: GI. Format: functional.
For data set [5], the system named is A549. The data set is described as follows: Antiproliferative activity against human A549 cells assessed as growth inhibition at 1 uM incubated for 24 hrs by MTT assay (reference value: 0%). To be noted: A549, 24 h, read-out: GI. Format: functional.
Data set [6] deals with A549. The data set can be described thus: Antiproliferative activity against human A549 cells assessed as growth inhibition at 0.1 uM incubated for 24 hrs by MTT assay (reference value: 0%). The note with it: A549, 24 h, read-out: GI. Format: functional.
Data set [7] concerns MCF7. The data set can be described thus: Antiproliferative activity against human MCF7 cells assessed as reduction in cell growth incubated for 24 hrs by MTT assay. Format: functional, cell-based. The note with it: MCF7, 24 h.
The target of data set [8] is Epidermal growth factor receptor (Homo sapiens) (UniProt P00533). The note with it: MCF7, at 10 µM.
Description: Inhibition of EGFR in human MCF7 cells assessed as reduction in EGFR phosphorylation at 10 uM incubated for 48 hrs by Western blot analysis
Data set [9] concerns A549. The data set is described as follows: Antiproliferative activity against human A549 cells assessed as reduction in cell growth incubated for 24 hrs by MTT assay. To be noted: A549, 24 h. Format: functional, cell-based.
A further data set has as its system MCF-10A. The data set can be described thus: Cytotoxicity against human MCF10A cells assessed as reduction in cell viability incubated for 24 hrs by MTT assay. The data set is classed as ADME, cell-based.
Data set [10] can be described thus: Selectivity index, ratio of cytotoxic IC50 for human MCF10A cells to antiproliferative IC50 for human MCF7 cells. Format: toxicity. The note with it: MCF10A cells and MCF7 cells, read-out: Ratio IC50.

Each structure is given as a SMILES string.

Chain of Epidermal growth factor receptor (Homo sapiens) (P00533 whole entry): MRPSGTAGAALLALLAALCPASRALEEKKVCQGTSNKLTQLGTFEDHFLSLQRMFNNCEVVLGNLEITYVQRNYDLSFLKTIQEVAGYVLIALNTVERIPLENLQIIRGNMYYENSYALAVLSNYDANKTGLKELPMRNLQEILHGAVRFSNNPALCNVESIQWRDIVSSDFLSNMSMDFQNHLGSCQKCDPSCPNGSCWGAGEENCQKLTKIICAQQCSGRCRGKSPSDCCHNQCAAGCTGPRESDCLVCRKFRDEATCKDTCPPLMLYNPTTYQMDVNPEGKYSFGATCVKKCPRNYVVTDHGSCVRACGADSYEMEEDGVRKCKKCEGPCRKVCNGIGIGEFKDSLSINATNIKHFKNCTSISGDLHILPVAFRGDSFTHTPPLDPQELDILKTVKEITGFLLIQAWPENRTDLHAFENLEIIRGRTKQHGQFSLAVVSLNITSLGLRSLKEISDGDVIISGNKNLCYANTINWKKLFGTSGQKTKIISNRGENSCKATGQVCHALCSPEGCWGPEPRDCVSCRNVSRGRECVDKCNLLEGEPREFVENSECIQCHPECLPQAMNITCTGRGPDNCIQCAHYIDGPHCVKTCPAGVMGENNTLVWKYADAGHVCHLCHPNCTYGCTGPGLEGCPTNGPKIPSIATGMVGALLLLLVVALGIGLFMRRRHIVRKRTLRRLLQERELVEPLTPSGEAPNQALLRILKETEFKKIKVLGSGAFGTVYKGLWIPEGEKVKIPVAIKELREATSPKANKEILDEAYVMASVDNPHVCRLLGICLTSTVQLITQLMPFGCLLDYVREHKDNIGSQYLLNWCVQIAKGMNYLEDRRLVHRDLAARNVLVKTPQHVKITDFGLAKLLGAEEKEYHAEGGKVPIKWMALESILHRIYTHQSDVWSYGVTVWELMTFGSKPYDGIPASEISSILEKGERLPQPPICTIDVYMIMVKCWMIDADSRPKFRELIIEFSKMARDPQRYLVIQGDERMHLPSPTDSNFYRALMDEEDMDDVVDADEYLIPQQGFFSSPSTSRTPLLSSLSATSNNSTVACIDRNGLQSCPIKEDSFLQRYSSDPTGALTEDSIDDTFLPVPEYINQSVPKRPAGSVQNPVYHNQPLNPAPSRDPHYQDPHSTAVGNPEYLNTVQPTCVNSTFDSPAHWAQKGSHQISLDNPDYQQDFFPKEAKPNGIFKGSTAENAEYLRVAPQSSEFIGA

For orientation: IC50 means the concentration that inhibits the measured activity by half. For orientation: inhibition means the share of the control response that was lost under treatment. Read a high inhibition as strong suppression. On to `O=C(Cn1cc(COc2cccc(OCc3cn(CC(=O)Nc4ccc(Cl)cc4)nn3)c2)nn1)Nc1ccc(Cl)cc1`, for which the inhibition of growth at 10 µM in the data set on MCF7 [1] stood at 64%; with A549 [4] it was 3.36%. In addition, the values for the inhibition of growth at 1 µM with MCF7 [2] and in the data set with A549 [5] were 31.7% and -0.17%, respectively. For the same molecule, the inhibition of growth at 0.1 µM in the data set with MCF7 [3] came out at 16.2%; in the data set with A549 [6], 1.16%. Besides, the IC50 in the data set on MCF7 [7] was determined as 6.13 µM. In data set [8], this molecule showed an inhibition of 32.6%.
As for `Cc1ccc(NC(=O)Cn2cc(COc3cccc(OCc4cn(CC(=O)Nc5ccc(C)cc5)nn4)c3)nn2)cc1`, the inhibition of growth at 10 µM in the data set on MCF7 [1] was determined as 82.6%; in the data set on A549 [4], 34.1%. Also, the inhibition of growth at 1 µM in the data set with MCF7 [2] came to 9.47%; in the data set with A549 [5] it was 7.51%. The figures for the inhibition of growth at 0.1 µM in the data set with MCF7 [3] and in the data set with A549 [6] were 5.16% and 0%, respectively. In addition, the IC50 in the data set with MCF7 [7] is 6.01 µM. The same molecule came in with an inhibition in [8] of 76.9%.
For `O=C(Cn1cc(COc2ccccc2OCc2cn(CC(=O)Nc3ccccc3)nn2)nn1)Nc1ccccc1`, the inhibition of growth at 10 µM in the data set on MCF7 [1] was 12.9%; with A549 [4] it was 44.3%. The values for the inhibition of growth at 1 µM in the data set with MCF7 [2] and in the data set with A549 [5] were 12.1% and 6.8%, respectively. Moreover, the inhibition of growth at 0.1 µM in the data set with MCF7 [3] turned out to be 11.3%; with A549 [6], 0%.
For the molecule `COc1ccc(NC(=O)Cn2cc(COc3cccc(OCc4cn(CC(=O)Nc5ccc(OC)cc5)nn4)c3)nn2)cc1`, the inhibition of growth at 10 µM with MCF7 [1] amounted to 33.3%; in the data set with A549 [4], 94.5%. The results for the inhibition of growth at 1 µM in the data set on MCF7 [2] and with A549 [5] were 11.1% and 42.8%, respectively. The inhibition of growth at 0.1 µM in the data set with MCF7 [3] was 11.9%; in the data set with A549 [6] it was 7.26%. The IC50 in the data set with A549 [9] worked out at 2.34 µM.
Consider `COc1ccc(NC(=O)Cn2cc(COc3ccccc3OCc3cn(CC(=O)Nc4ccc(OC)cc4)nn3)nn2)cc1`, for which the inhibition of growth at 10 µM came to 96% in the data set with MCF7 [1] and 15.4% in the data set on A549 [4]. For the same molecule, the values for the inhibition of growth at 1 µM in the data set on MCF7 [2] and in the data set on A549 [5] were 24% and 6.56%, respectively. For the same molecule, the inhibition of growth at 0.1 µM in the data set on MCF7 [3] stood at 18.4%; with A549 [6], 5.57%. The values for the 50% inhibitory concentration (IC50) in the data set with MCF7 [7] and in the data set on MCF-10A were 4.18 µM and 33.4 µM, respectively. In addition, in data set [10], the selectivity ratio was 8. In data set [8], the inhibition is 88.3%.
With `O=C(Cn1cc(COc2cccc(OCc3cn(CC(=O)Nc4ccc([N+](=O)[O-])cc4)nn3)c2)nn1)Nc1ccc([N+](=O)[O-])cc1`, the inhibition of growth at 10 µM with MCF7 [1] amounted to 5.44%; with A549 [4], 98.6%. Besides, the inhibition of growth at 1 µM in the data set on MCF7 [2] worked out at 4.58%; in the data set with A549 [5], 42.4%. Further, the inhibition of growth at 0.1 µM with MCF7 [3] came out at 4.96%; in the data set with A549 [6] it was 25.5%. In addition, the IC50 in the data set on A549 [9] amounted to 2.22 µM.
On to `O=C(Cn1cc(COc2ccccc2OCc2cn(CC(=O)Nc3ccc(Cl)cc3)nn2)nn1)Nc1ccc(Cl)cc1`, for which the inhibition of growth at 10 µM came to 79.9% in the data set with MCF7 [1] and 73.5% with A549 [4]. The inhibition of growth at 1 µM was found to be 42.9% in the data set on MCF7 [2] and 25.4% in the data set with A549 [5]. Further, the inhibition of growth at 0.1 µM in the data set on MCF7 [3] was 39%; with A549 [6], 1.89%. In addition, the half-inhibitory concentration (IC50) was 2.8 µM in the data set with MCF7 [7], 5.61 µM with A549 [9] and 14 µM in the data set on MCF-10A. Also, the selectivity ratio in [10] stood at 5. Also, the inhibition in data set [8] was determined as 72.7%.
Turning to `O=C(Cn1cc(COc2cccc(OCc3cn(CC(=O)Nc4ccccc4)nn3)c2)nn1)Nc1ccccc1`, the figures for the inhibition of growth at 10 µM in the data set on MCF7 [1] and with A549 [4] were 22.1% and 69.2%, respectively. For the same molecule, the inhibition of growth at 1 µM in the data set on MCF7 [2] was 13.8%; in the data set on A549 [5], 10.8%. Also, the inhibition of growth at 0.1 µM in the data set with MCF7 [3] is 14.5%; with A549 [6], 11.4%. For the same molecule, the IC50 in the data set on A549 [9] is 7.05 µM.
In the case of `Cc1ccc(NC(=O)Cn2cc(COc3ccccc3OCc3cn(CC(=O)Nc4ccc(C)cc4)nn3)nn2)cc1`, the inhibition of growth at 10 µM with MCF7 [1] amounted to 63.8%; in the data set with A549 [4] it was 86.6%. The inhibition of growth at 1 µM came out at 25.7% with MCF7 [2] and 12.8% with A549 [5]. Further, the inhibition of growth at 0.1 µM in the data set with MCF7 [3] came out at 25.4%; in the data set on A549 [6], 8.92%. Also, the IC50 in the data set with MCF7 [7] was determined as 6.7 µM; with A549 [9], 5.56 µM. The molecule further displayed an inhibition in data set [8] of 28.2%.
As to `O=C(Cn1cc(COc2ccccc2OCc2cn(CC(=O)Nc3ccc([N+](=O)[O-])cc3)nn2)nn1)Nc1ccc([N+](=O)[O-])cc1`, the inhibition of growth at 10 µM with MCF7 [1] worked out at 12.7%; in the data set on A549 [4], 11.8%. Besides, the inhibition of growth at 1 µM with MCF7 [2] was 15%; in the data set on A549 [5], 10.7%. For the same molecule, the inhibition of growth at 0.1 µM in the data set on MCF7 [3] stood at 14.2%; with A549 [6] it was 5.9%.
